{"source": "patent US8372967B2", "about": "“Compounds and methods for modulating expression of GCCR” (Isis Pharmaceuticals, Inc., priority 2006, dated 2013)", "key": {"[1]": {"assay": "ALT and AST levels and adverse side effects, ApoB study (Table 26)", "type": "in vivo, mouse", "conditions": "Balb/c mice, i.p. twice per week for three weeks, 48 h after final injection", "procedure": "(§1) Antisense compound doses included 2.4, 1.2, 0.6, 0.3 and 0.15 μmol/kg. For antisense compounds 14 nucleotides in length, these doses equate to approximately 12, 6, 3, 1.5 or 0.75 mg/kg, respectively. Shown in Table 25 are the sequences and motifs of the antisense compounds used in this study. […] Bolded residues indicate 2′-O-methoxyethyl moieties and italicized residues indicate methyleneoxy (4′-CH2—O-2′) BNAs. The internucleoside linkages of each compound are phosphorothioate throughout. All cytosine residues of ISIS 147764 and ISIS 372938 are replaced by 5-methyl cytosines. For ISIS 387462, only the cytosine residue in the wing of the compound is replaced by 5-methyl cytosine. ApoB antisense compounds are targeted to publicly available ApoB-100 sequences, including Genbank Accession No. XM—137955.5 (SEQ ID NO: 2).\n(§2) Forty-eight hours following the final injection, mice were sacrificed to evaluate transaminases (Table 26); liver and kidney weight (Table 27); triglyceride, LDL, HDL and free fatty acid levels (Table 28); target mRNA level in liver (Table 29); target protein level in plasma; and oligonucleotide tissue concentration (Table 30). These endpoints were determined using methods described herein and well known to those of ordinary skill in the art."}, "[2]": {"assay": "Triglyceride, total cholesterol, HDL, LDL and free fatty acid levels, ApoB study (Table 28)", "type": "in vivo, mouse", "parameters": "Free Fatty Acid (FFA): unit not given here", "conditions": "Balb/c mice, i.p. twice per week for three weeks", "procedure": "as §1, §2"}, "[3]": {"assay": "Liver and kidney weight, body weight, food consumption, glucose, ApoB study (Table 27)", "type": "in vivo, mouse", "conditions": "Balb/c mice, i.p. twice per week for three weeks", "procedure": "as §1, §2\nGlucose levels also were similar among all treatment groups."}, "[4]": {"assay": "Full-length and total antisense compound tissue concentration in liver and kidney, ApoB study (Table 30)", "type": "in vivo, mouse", "conditions": "Balb/c mice, i.p. twice per week for three weeks, 2.4 μmol/kg", "procedure": "as §1, with “ApoB antisense compounds are targeted to publicly available ApoB-100 sequences, including Genbank Accession No. XM—137955.5 (SEQ ID NO: 2).” left out\nas §2\nTo determine whether the observed increase in efficiency with the methyleneoxy (4′-CH2—O-2′) BNA gapmer is due to an increase in oligonucleotide accumulation, full-length and total oligonucleotide concentration in the liver and kidney were determined."}, "ApoB mRNA": {"tested_on": "ApoB mRNA", "assay": "ApoB mRNA level in liver, Balb/c mice dosed i.p. twice per week for three weeks (Table 29); EC50 in liver", "type": "in vivo, mouse", "conditions": "for % ApoB mRNA Level (relative to saline control): liver, Balb/c mice", "procedure": "Prior to quantitative PCR analysis, primer-probe sets specific to the target gene being measured were evaluated for their ability to be “multiplexed” with a GAPDH amplification reaction. After isolation the RNA is subjected to sequential reverse transcriptase (RT) reaction and real-time PCR, both of which are performed in the same well. RT and PCR reagents were obtained from Invitrogen Life Technologies (Carlsbad, Calif.). […] The RT reaction was carried out by incubation for 30 minutes at 48° C. Following a 10 minute incubation at 95° C. to activate the PLATIN 9M® Taq, 40 cycles of a two-step PCR protocol were carried out: 95° C. for 15 seconds (denaturation) followed by 60° C. for 1.5 minutes (annealing/extension).\n170 μL of RiboGreen® working reagent (RiboGreen® reagent diluted 1:350 in 10 mM Tris-HCl, 1 mM EDTA, pH 7.5) was pipetted into a 96-well plate containing 30 μL purified cellular RNA. The plate was read in a CytoFluor® 4000 (PE Applied Biosystems) with excitation at 485 nm and emission at 530 nm.\nas §1, §2\nThe EC50 for ISIS 387462 in the liver was determined by comparing oligonucleotide concentration in the liver to inhibition of ApoB mRNA."}, "PTEN mRNA": {"tested_on": "PTEN mRNA", "assay": "PTEN mRNA levels in liver, kidney and fat, Balb/c mice, single i.p. 8 μmol/kg (Table 48)", "type": "in vivo, mouse", "conditions": "72 h, saline = 100", "source_text": "(§3) Each dose group consisted of four animals. Shown in Table 46 are the sequences and motifs of the PTEN antisense compounds used in this study. Bolded residues indicate 2′-O-methoxyethyl moieties (2′-MOE) and italicized residues indicate Methyleneoxy BNA nucleotides. Each antisense compound comprises phosphorothioate linkages throughout. In addition, the cytosine residues in the gap of ISIS 384073 and in the wings of ISIS 392056, ISIS 392057, ISIS 392061 and ISIS 392063 are replaced with 5-methylcytosines. Antisense compounds target published PTEN nucleic acids, including Genbank Accession No. U92437.1 (SEQ ID\n(§4) Mice were sacrificed 72 hours following injection to determine serum transaminase levels (Table 47); liver and spleen weights (Table 47); and PTEN mRNA levels in liver, kidney and fat (Table 48), according to procedures described herein and well know to one of ordinary skill in the art."}, "[5]": {"assay": "Transaminase levels and organ weights, PTEN study (Table 47)", "type": "in vivo, mouse", "conditions": "single i.p. 8 μmol/kg, 72 h", "source_text": "as §3, §4"}, "mouse SGLT2 mRNA [6]": {"tested_on": "mouse SGLT2 mRNA", "assay": "Mouse SGLT2 mRNA in kidney, wing, gap and total length variations (Table 61)", "type": "in vivo", "procedure": "ISIS 3707171-10-1 MOE gapmer was used as a template to make sequence related oligos with varying motifs. The antisense compounds were designed to target different regions of the mouse or rat SGLT2 nucleic acid, using published sequences (GenBank accession number U29881.1, incorporated herein as SEQ ID NO: 1575, and GenBank accession number AJ292928.1, incorporated herein as SEQ ID NO: 1576, respectively).\nThe antisense compounds were analyzed for their effect on mouse SGLT2 mRNA levels. Data are ranges taken from three experiments in which mice were dosed twice per week for three weeks with 2.5, 0.5 or 0.1 umol/kg of the above MOE gapmers given by intraperitoneal injection. Mice were sacrificed 48 hours following last administration and evaluated for SGLT2 levels in kidney. SGLT2 mRNA levels were determined by RT, real-time PCR as described by other examples herein. PCR results were normalized to an internal ISIS control."}, "mouse SGLT2 mRNA [7]": {"tested_on": "mouse SGLT2 mRNA", "assay": "Mouse SGLT2 mRNA in kidney, 1-10-1 MOE gapmers, Balb/c mice (Table 65)", "type": "in vivo", "procedure": "The short antisense compounds were analyzed for their effect on mouse SGLT2 mRNA levels. Data was taken from three experiments in which Male 6-week old Balb/c mice were dosed twice per week for two weeks with 450, 150, or 50 nmol/kg of one of the above 1-10-1 MOE gapmers given by intraperitoneal injection. Mice were sacrificed 48 hours following last administration and evaluated for SGLT2 mRNA levels in kidney. Target levels were determined by RT, real-time PCR as described by other examples herein. PCR results were normalized to an internal ISIS control."}, "rat SGLT2 mRNA [8]": {"tested_on": "rat SGLT2 mRNA", "assay": "Rat SGLT2 mRNA in kidney, 1-10-1 gapmers, 250 nmol/kg (Table 66)", "type": "in vivo", "conditions": "250 nmol/kg i.p. twice per week for three weeks, Sprague-Dawley rat kidney", "procedure": "The effect of the above 1-10-1 gapmers (see Table 64 above) on rat SGLT2 mRNA levels. Data are taken from four experiments in which male Sprague-Dawley rats (170-200 g) were dosed twice per week for three weeks with 250 nmol/kg given by intraperitoneal injection. Rats were sacrificed 48 hours following last administration and evaluated for SGLT2 mRNA levels in kidney. Target levels were determined by RT, real-time PCR as described by other examples herein. PCR results were normalized to an internal ISIS control."}, "rat SGLT2 mRNA [9]": {"tested_on": "rat SGLT2 mRNA", "assay": "Rat SGLT2 mRNA in kidney, 1-10-1 and 1-10-2 MOE gapmers, Sprague-Dawley rats (Table 63)", "type": "in vivo"}}, "note": "Strand notation (5' to 3'): a small letter for the sugar, then the base; units joined by * are phosphorothioate-linked, units joined directly phosphodiester-linked; [ ] holds rarer units or linkages, { } end groups; capitals alone tell only the bases. e = 2'-O-(2-methoxyethyl) (MOE); l = locked nucleic acid (LNA); [5mC] = 5-methylcytosine; d = 2'-deoxy (DNA)"}
{"substance": "372938 (antisense eG*eG*dT*dA*d[5mC]*dA*dT*dG*dG*dA*dA*dG*eT*e[5mC]) [compound 372938]", "values": [{"measurement": "AST", "setting": "[1]; 0.3 μmol/kg", "result": 60.0, "unit": "IU/L"}, {"measurement": "ALT", "setting": "[1]; 0.6 μmol/kg", "result": 28.0, "unit": "IU/L"}, {"measurement": "ALT", "setting": "[1]; 2.4 μmol/kg", "result": 26.0, "unit": "IU/L"}, {"measurement": "AST", "setting": "[1]; 2.4 μmol/kg", "result": 49.0, "unit": "IU/L"}, {"measurement": "LDL", "setting": "[2]; 0.3 μmol/kg", "result": 11.0, "unit": "mg/dL"}, {"measurement": "Total Cholesterol (CHOL)", "setting": "[2]; 0.6 μmol/kg", "result": 110, "unit": "mg/dL"}, {"measurement": "Free Fatty Acid (FFA)", "setting": "[2]; 1.2 μmol/kg", "result": 1.70}, {"measurement": "LDL", "setting": "[2]; 1.2 μmol/kg", "result": 9.5, "unit": "mg/dL"}, {"measurement": "HDL", "setting": "[2]; 2.4 μmol/kg", "result": 79.0, "unit": "mg/dL"}, {"measurement": "Kidney Weight", "setting": "[3]; 0.15 μmol/kg", "result": "98 % of saline control"}, {"measurement": "Liver Weight", "setting": "[3]; 0.15 μmol/kg", "result": "96 % of saline control"}, {"measurement": "Liver Weight", "setting": "[3]; 0.3 μmol/kg", "result": "91 % of saline control"}, {"measurement": "Liver Weight", "setting": "[3]; 0.6 μmol/kg", "result": "96 % of saline control"}, {"measurement": "Liver Weight", "setting": "[3]; 1.2 μmol/kg", "result": "90 % of saline control"}, {"measurement": "Kidney Weight", "setting": "[3]; 2.4 μmol/kg", "result": "100 % of saline control"}, {"measurement": "Liver Weight", "setting": "[3]; 2.4 μmol/kg", "result": "100 % of saline control"}, {"measurement": "Kidney Full-Length Antisense Compound Tissue Concentration", "setting": "[4]", "result": 32.0, "unit": "µM"}, {"measurement": "Kidney Total Antisense Compound Tissue Concentration", "setting": "[4]", "result": 34.0, "unit": "µM"}, {"measurement": "ApoB mRNA level", "setting": "ApoB mRNA; Table 30, Balb/c mice, 2.4 μmol/kg", "result": "77 % of saline control"}, {"measurement": "% ApoB mRNA Level (relative to saline control)", "setting": "ApoB mRNA; 1.2 μmol/kg", "result": 90.0, "unit": "%"}, {"measurement": "% ApoB mRNA Level (relative to saline control)", "setting": "ApoB mRNA; 2.4 μmol/kg", "result": 77.0, "unit": "%"}]}
{"substance": "391172 (antisense lC*lT*dA*dG*dC*dC*dT*dC*dT*dG*dG*dA*lT*lT*lT) [compound 391172]", "values": [{"measurement": "% PTEN mRNA levels in Kidney", "setting": "PTEN mRNA", "result": 63, "unit": "%"}, {"measurement": "% PTEN mRNA levels in Liver", "setting": "PTEN mRNA", "result": 18, "unit": "%"}, {"measurement": "Liver Weight", "setting": "[5]", "result": 120, "unit": "% Saline"}]}
{"substance": "392061 (antisense l[5mC]*lT*dA*dG*dC*dC*dT*dC*dT*dG*dG*dA*lT*lT) [compound 392061]", "values": [{"measurement": "% PTEN mRNA levels in Fat", "setting": "PTEN mRNA", "result": 85, "unit": "%"}, {"measurement": "% PTEN mRNA levels in Kidney", "setting": "PTEN mRNA", "result": 61, "unit": "%"}, {"measurement": "% PTEN mRNA levels in Liver", "setting": "PTEN mRNA", "result": 24, "unit": "%"}, {"measurement": "ALT", "setting": "[5]", "result": 42.0, "unit": "IU/L"}]}
{"substance": "ISIS 370717: TAGCCACCAACT 1-10-1 MOE gapmer, phosphorothioate, SGLT-2 (sugars from the 5' end e1 d10 e1, all phosphorothioate, methylation of C not given here)", "values": [{"measurement": "% change in SGLT2 expression relative to saline", "setting": "mouse SGLT2 mRNA [6]; 0.1 umol/kg i.p. twice per week for three weeks", "result": "−55", "unit": "%"}, {"measurement": "% change in SGLT2 expression relative to saline", "setting": "mouse SGLT2 mRNA [6]; 0.5 umol/kg i.p. twice per week for three weeks", "result": "−70", "unit": "%"}, {"measurement": "% change in SGLT2 expression relative to saline", "setting": "mouse SGLT2 mRNA [7]; 50 nmol/kg i.p. twice per week for two weeks", "result": "−47.5", "unit": "%"}, {"measurement": "% change in SGLT2 expression relative to saline", "setting": "mouse SGLT2 mRNA [7]; 150 nmol/kg i.p. twice per week for two weeks", "result": "−55", "unit": "%"}, {"measurement": "% change in SGLT2 expression relative to saline", "setting": "mouse SGLT2 mRNA [7]; 450 nmol/kg i.p. twice per week for two weeks", "result": "−65", "unit": "%"}, {"measurement": "% change in SGLT2 expression relative to saline", "setting": "rat SGLT2 mRNA [8]", "result": "−70", "unit": "%"}, {"measurement": "% change in SGLT2 expression relative to saline", "setting": "rat SGLT2 mRNA [9]; 50 nmol/kg i.p. twice per week for three weeks", "result": "−55", "unit": "%"}, {"measurement": "% change in SGLT2 expression relative to saline", "setting": "rat SGLT2 mRNA [9]; 150 nmol/kg i.p. twice per week for three weeks", "result": "−70", "unit": "%"}, {"measurement": "% change in SGLT2 expression relative to saline", "setting": "rat SGLT2 mRNA [9]; 450 nmol/kg i.p. twice per week for three weeks", "result": "−70", "unit": "%"}]}
